Data on 9 molecules can be found in ChEMBL document CHEMBL3046372, “Design, Synthesis and Growth Inhibition Activity of Bis-Epoxyethyl Derivatives of Stallimycin Modified on the Amidino Moiety” (Med Chem Res, 2004).

Assay [1] deals with L1210. As to the kind of experiment: Cytotoxicity against Mus musculus (mouse) L1210 cells after 72 hr. The note with it: L1210, 72 h. Format: functional, cell-based.
In assay [2] the test system is K562. As to the kind of experiment: Cytotoxicity against Homo sapiens (human) K562 cells after 72 hr. The following applies: K562, 72 h. Format: functional, cell-based.
Assay [3] relates to K562. As to the kind of experiment: Induction of erythroid differentiation in Homo sapiens (human) K562 cells assessed as benzidine-positive cells at IC50 after 4 days. In kind it is functional.
For assay [4], the system named is K562. As to the kind of experiment: Induction of erythroid differentiation in Homo sapiens (human) K562 cells assessed as benzidine-positive cells at IC50 after 6 days. In kind it is functional.
Assay [5] has as its system L1210. As to the kind of experiment: Ratio of distamycin-A IC50 to compound IC50 for Mus musculus (mouse) L1210 cells. Format: functional.

Take `Cn1cc(NC(=O)c2cc(NC(=O)c3cc(N(CC4CO4)CC4CO4)cn3C)cn2C)cc1C(=O)NCC/C(N)=N/O` (stereo not given): the IC50 with L1210 [1] is 18 µM; with K562 [2], 12 µM. The Activity with K562 [3] is recorded as 11%; in the assay with K562 [4], 13%.
Regarding `Cn1cc(NC(=O)c2cc(NC(=O)c3cc(N(CC4CO4)CC4CO4)cn3C)cn2C)cc1C(=O)NCCC(N)=O` (stereo not given), the IC50 in the assay on L1210 [1] amounted to 35 µM; in the assay with K562 [2], 25 µM. Further, the values for the Activity with K562 [3] and with K562 [4] were 15% and 16%, respectively. The “Ratio IC50” value in the assay on L1210 [5] was 4.
With `CNC(=O)CCNC(=O)c1cc(NC(=O)c2cc(NC(=O)c3cc(N)cn3C)cn2C)cn1C`, the IC50 in the assay with L1210 [1] and in the assay with K562 [2] was more than 50 µM in each case.
For `Cl.Cl.Cn1cc(NC(=O)c2cc(NC(=O)c3cc(NC=O)cn3C)cn2C)cc1C(=O)NCCC(=N)N`, the values for the concentration for half-maximal inhibition (IC50) with L1210 [1] and in the assay on K562 [2] were 50 µM and 10 µM, respectively. For the same molecule, the values for the Activity with K562 [3] and with K562 [4] were 8% and 10%, respectively.
In the case of `Cn1cc(NC(=O)c2cc(NC(=O)c3cc(N)cn3C)cn2C)cc1C(=O)NCC/C(N)=N/O`, the concentration for half-maximal inhibition (IC50) in the assay on L1210 [1] and with K562 [2] was more than 50 µM throughout.
Consider `Cn1cc(NC(=O)c2cc(NC(=O)c3cc(N)cn3C)cn2C)cc1C(=O)NCC/C(N)=N/C#N`, for which the IC50 in the assay on L1210 [1] and in the assay on K562 [2] was more than 50 µM throughout.
For `Cn1cc(NC(=O)c2cc(NC(=O)c3cc(N)cn3C)cn2C)cc1C(=O)NCCC(N)=O`, the IC50 was more than 50 µM in the assay on L1210 [1] and 45 µM with K562 [2].
Regarding `Cn1cc(NC(=O)c2cc(NC(=O)c3cc(N(CC4CO4)CC4CO4)cn3C)cn2C)cc1C(=O)NCC/C(N)=N/C#N` (stereo not given), the IC50 is 6.3 µM in the assay with L1210 [1] and 1 µM with K562 [2]. Further, the Activity turned out to be 46.3% in the assay with K562 [3] and 65.3% with K562 [4].
For the molecule `CNC(=O)CCNC(=O)c1cc(NC(=O)c2cc(NC(=O)c3cc(N(CC4CO4)CC4CO4)cn3C)cn2C)cn1C` (stereo not given), the figures for the IC50 in the assay with L1210 [1] and in the assay on K562 [2] were 38 µM and 25 µM, respectively. The Activity is listed as 12% with K562 [3] and 15% in the assay with K562 [4]. Further, the “Ratio IC50” value with L1210 [5] is 4.

The IC50 is the concentration needed to halve the response being measured. A high value points to weaker potency.
